Laboratory results from ChEMBL document CHEMBL1152080, “Linear sesterterpenes from the Caribbean sponge Thorecta horridus with inflammatory activity” (1991).

Key:
Type in all cases: functional
Rattus norvegicus [1] = species: Rattus norvegicus; assay: Percent release of histamine from rat peritoneal cells was determined at 1 ug/mL concentration of compound
Rattus norvegicus [2] = assay: Compound was evaluated in vivo for its inflammatory activity in rat paw pretreated with mepyramine (2.5 mg/kg) and methysergide (3 mg/Kg)after administration of compound (1 mg) and percent edema was reported
Rattus norvegicus [3] = species: Rattus norvegicus; assay: Percent release of histamine from rat peritoneal cells was determined at 10 ug/mL concentration of compound
Rattus norvegicus [4] = species: Rattus norvegicus; assay: Percent release of histamine from rat peritoneal cells was determined at 0.1 ug/mL concentration of compound

SMILES: CC(C)=CCC/C(C)=C/CC/C(C)=C/CC/C(C)=C/CCC1=CC(=O)OC1
- Histamine release (Rattus norvegicus [1]): 11%
- Supression (Rattus norvegicus [2]): 65%
- Histamine release (Rattus norvegicus [3]): 30%
- Histamine release (Rattus norvegicus [4]): 4%
